Data set [1] relates to hot flashes or other symptoms of hormonal variations.
For data set [2], the system named is hot flashes. The following applies: cited from earlier work; for minimizing the occurrence and severity of hot flashes compared with placebo: randomized clinical trials (Loprinzi 2000; Stearns 2003).
Data set [3] deals with D2 dopamine receptor (Homo sapiens, UniProt P14416). The following applies: serial PET scans; cited from earlier work.
The target of data set [4] is dopamine type 2 (D2) receptor (Homo sapiens, UniProt P14416). The following applies: cited from earlier work.
For data set [5], the system named is α1-adrenergic receptors. To be noted: cited from earlier work.
Data set [6] has as its target D1 dopamine receptors (Homo sapiens, UniProt P21728). The following applies: cited from earlier work.
Data set [7] deals with α2-adrenergic receptors. To be noted: cited from earlier work.
The mark [8] stands for this setting: Patient 2, risperidone 2 mg per day.
The mark [9] stands for this setting: Patient 3, risperidone 1 mg daily resumed.

Where two headings read alike, the source gives them in different places.

Data on seven compounds can be found in patent US20150246056A1, “METHODS FOR TREATING OR PREVENTING SYMPTOMS OF HORMONAL VARIATIONS” (priority 2006, published 2015).

Sequence of D1 dopamine receptors (P21728 whole entry): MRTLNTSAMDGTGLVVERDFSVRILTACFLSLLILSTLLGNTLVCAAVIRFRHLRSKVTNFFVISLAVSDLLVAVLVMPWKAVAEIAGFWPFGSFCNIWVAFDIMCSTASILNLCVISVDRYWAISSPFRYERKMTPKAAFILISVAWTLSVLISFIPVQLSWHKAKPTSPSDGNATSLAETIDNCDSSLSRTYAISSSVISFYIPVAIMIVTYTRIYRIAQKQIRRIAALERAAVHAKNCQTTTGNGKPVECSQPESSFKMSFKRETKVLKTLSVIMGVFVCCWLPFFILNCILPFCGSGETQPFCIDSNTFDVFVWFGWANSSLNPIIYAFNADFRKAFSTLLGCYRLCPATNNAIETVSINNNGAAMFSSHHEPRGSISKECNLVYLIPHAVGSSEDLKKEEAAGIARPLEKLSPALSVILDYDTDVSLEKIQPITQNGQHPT
Sequence of D2 dopamine receptor (P14416 whole entry): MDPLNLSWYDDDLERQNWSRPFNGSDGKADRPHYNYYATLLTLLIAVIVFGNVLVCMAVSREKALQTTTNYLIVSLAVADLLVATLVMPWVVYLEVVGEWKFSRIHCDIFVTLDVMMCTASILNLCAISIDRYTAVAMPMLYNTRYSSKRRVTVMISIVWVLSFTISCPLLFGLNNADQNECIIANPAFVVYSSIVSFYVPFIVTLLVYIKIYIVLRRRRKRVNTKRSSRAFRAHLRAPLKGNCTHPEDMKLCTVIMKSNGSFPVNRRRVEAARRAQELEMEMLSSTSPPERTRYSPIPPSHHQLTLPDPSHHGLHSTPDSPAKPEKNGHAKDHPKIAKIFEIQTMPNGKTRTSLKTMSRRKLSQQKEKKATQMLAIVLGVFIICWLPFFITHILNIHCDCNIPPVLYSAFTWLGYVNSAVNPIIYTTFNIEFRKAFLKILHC
Sequence of dopamine type 2 (D2) receptor (P14416 whole entry): as above

For the compound `COC(=O)C1=C(C)NC(C)=C(C(=O)OC)C1c1ccccc1[N+](=O)[O-]` [adalate], the “blood pressure after sublingual dose for sudden onsets of high blood pressure” value in data set [1] (human, in vivo) is “frequently dropped below critical level”.

As to `Clc1cccc(Cl)c1N=C1NCCN1` [clonidine], in data set [2] (randomized clinical trials, including dry mouth, dizziness, and blurred vision), the adverse effects entry is given as “common”. Besides, the “efficacy against hot flashes compared with placebo” value in data set [2] (randomized clinical trials, tamoxifen-induced hot flashes (Goldberg 1994; Pandya 2000)) is given as “moderately more efficacious than placebo”.

For `Fc1ccc([C@@H]2CCNC[C@H]2COc2ccc3c(c2)OCO3)cc1` [paroxetine], the “minimizing the occurrence and severity of hot flashes compared with placebo” value in data set [2] is on record as “more effective than placebo”.

Turning to `OCCOCCN1CCN(C2=Nc3ccccc3Sc3ccccc32)CC1` [quetiapine], in data set [3], the “dissociation from the D2 receptor” value is “rapidly disassociates”.

Turning to `Cc1nc2n(c(=O)c1CCN1CCC(c3noc4cc(F)ccc34)CC1)CCCC2` [risperidone], the “affinity for D2 receptor” value in data set [4] is given as “high affinity”. In addition, the “affinity for α1-adrenergic receptors” value in data set [5] is “high affinity”. Further, the “binding to D1 dopamine receptors” value in data set [6] is recorded as “does not bind”. The “affinity for α2-adrenergic receptors” value in data set [7] is “lower affinities”. Also, the “associated symptoms, such as palpitation and anxiety” value in data set [1] (Patient 1, risperidone 2 mg/day) is listed as “improved significantly”. Further, the “time to reoccurrence of hot flashes after discontinuing the treatment” value in data set [1] (Patient 1, risperidone 2 mg/day discontinued) was 2 to 3 days. Further, in data set [1] (Patient 1, risperidone 2 mg/day, after three days of treatment), the “frequency of hot flashes” value is reported as “once per 1-2 weeks”. The “time to alleviation of symptoms after resuming treatment” value in data set [1] (Patient 1, risperidone resumed) fell in the range of 3 to 4 days. Moreover, the “hot flashes after treatment was resumed” value in data set [1] (Patient 2, risperidone 2 mg daily resumed) is listed as “has not suffered another hot flash since”; in data set [1] (setting [9]) it was “no longer experienced hot flashes”. Moreover, the blood pressure entry is “stabilized” in data set [1] (setting [8]) and “stabilized within the normal range” in data set [1] (Patient 4, risperidone 2 mg per night). Moreover, the sleep entry in data set [1] (setting [8]) is “slept well”. In addition, the “occurrence of hot flashes” value is reported as “completely eliminated” in data set [1] (Patient 2, risperidone 2 mg per day, by day 7) and “reduced markedly” in data set [1] (Patient 2, risperidone 2 mg per day, two days after starting). In data set [1] (Patient 2, risperidone tapered off over 2 days), the “time to return of hot flashes and night sweats after treatment was completely discontinued” value is recorded as “two”. Further, in data set [1] (setting [9]), the “quality of sleep and life” value is reported as “improved”. The “frequency and intensity of hot flashes” value in data set [1] (Patient 3, risperidone 1 mg per night, three days after starting, seven hot flashes per day before) is given as “markedly reduced”. Moreover, the “hot flashes after dose reduction” value in data set [1] (Patient 3, three months later, risperidone 0.25 mg or less per day) was “still markedly eliminated”. The residual hot flashes result in data set [1] (Patient 4, risperidone 1 mg at bedtime for two days, then 2 mg per night, with hormone replacement therapy, three days after starting) is on record as “completely eliminated”.

Consider `COc1ccc(C(CN(C)C)C2(O)CCCCC2)cc1` (stereo not drawn) [venlafaxine], for which, in data set [2], the “minimizing the occurrence and severity of hot flashes compared with placebo” value is “more effective than placebo”.

In the case of estrogen, the “response of perimenopausal symptoms to earlier therapies” value in data set [1] (Patient 3, perimenopausal person) is listed as “responded well”.
